In patent US7501541B2, “Malonamides as orexin antagonists” (Hoffmann-La Roche Inc., priority 2007, dated 2009):
Blank lines part the entries; values can stand above or below the molecule they belong to. No end group written: not given here.

Key:
[1] = target: T1, human orexin-1 (hOX1) receptors (Homo sapiens, UniProt O43613); test: Intracellular Ca2+ mobilization assay (FLIPR), CHO(dHFr-) cells expressing hOX1; type: cell-based; conditions: antagonism of orexin-A at EC80; Kb=IC50/(1+[A]/EC50); CHO(dHFr-)-OX1R cells
T1 construct: expressed in transfected cells
T1 sequence (O43613 1-425): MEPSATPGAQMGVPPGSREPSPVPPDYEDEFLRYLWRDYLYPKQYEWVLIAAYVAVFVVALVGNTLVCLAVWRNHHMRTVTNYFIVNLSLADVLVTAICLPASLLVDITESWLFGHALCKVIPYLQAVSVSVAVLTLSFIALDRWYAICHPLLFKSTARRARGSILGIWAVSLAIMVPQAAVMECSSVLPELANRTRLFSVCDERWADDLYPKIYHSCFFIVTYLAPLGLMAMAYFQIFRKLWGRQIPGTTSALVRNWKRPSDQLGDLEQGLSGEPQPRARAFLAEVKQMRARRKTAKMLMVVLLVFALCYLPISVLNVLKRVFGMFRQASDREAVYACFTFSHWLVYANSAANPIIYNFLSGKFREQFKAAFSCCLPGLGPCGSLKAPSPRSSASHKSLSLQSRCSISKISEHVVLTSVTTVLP
Method: (§1) Intracellular Ca^2+ Mobilization Assay
(§2) The Chinese Hamster Ovary (dHFr-) mutant cell line stably expressing human orexin-1 (hOX1) or human orexin-2 (hOX2) receptors were maintained in Dulbecco's Modified Eagle Medium (1X) with GlutaMax™ 1, 4500 mg/L D-Glucose and Sodium Pyruvate (Catalog No. 31966-021, Invitrogen, Carlsbad, Calif.), 5% dialyzed fetal calf serum (Catalog No. 26400-044), 100 μg/ml penicillin and 100 μg/ml streptomycin. The cells were seeded at 5×10^4 cells/well in the poly-D-lysine treated, 96-well, black/clear-bottomed plates (Catalog No. BD356640, BD Biosciences, Palo Alto, Calif.). 24 h later, the cells were loaded for 1 h at 37° C. with 4 μM Flou-4 acetoxymethyl ester (Catalog No. F-14202, Molecular Probes, Eugene, Oreg.) in FLIPR buffer (1×HBSS, 20 mM HEPES, 2.5 mM Probenecid). Hanks' Balanced Salt Solution (HBSS) (10×) (catalog No. 14065-049) and HEPES (1M) (catalog No. 15630-056) were purchased from Invitrogen, Carlsbad, Calif. Probenecid (250 mM) (catalog No. P8761) was from Sigma, Buchs, Switzerland. The cells were washed five times with FLIPR buffer to remove excess dye and intracellular calcium mobilization, [Ca^2+]i were measured using a Fluorometric Imaging Plate Reader (FLIPR-96, Molecular Devices, Menlo Park, Calif.) as described previously (Malherbe et al., Mol. Pharmacol., 64, 823-832, 2003). Orexin A (catalog No. 1455, Toris Cookson Ltd, Bristol, UK) was used as agonist. Orexin A ([…] stock solution in DMSO) was diluted in FLIPR buffer +0.1% BSA. The EC50 and EC80 values of orexin-A were measured daily from standard agonist concentration-response curves in CHO(dHFr-)-OX1R and -OX2R cell lines. All compounds were dissolved in 100% DMSO. Inhibition curves were determined by addition of 11 concentrations (0.0001-10 μM) of inhibitory compounds and using EC80 value of orexin-A as agonist (a concentration which gave 80% of max agonist response, determined daily). The antagonists were applied 25 min (incubation at 37° C.) before the application of the agonist. Responses were measured as peak increase in fluorescence minus basal, normalized to the maximal stimulatory effect induced by EC80 value of orexin-A or orexin-B. Inhibition curves were fitted according to the Hill equation: y=100/(1+(x/IC50)^nH), where nH=slope factor using Excel-fit 4 software (Microsoft). Kb values were calculated according to the following equation Kb=IC50/(1+[A]/EC50) where A is the concentration of agonist added which is very close to agonist EC80 value, and IC50 and EC50 values were derived from the antagonist inhibition and orexin-A or B agonist curves, respectively.

[2] = target: T2, human orexin-2 (hOX2) receptors (Homo sapiens, UniProt O43614); test: Intracellular Ca2+ mobilization assay (FLIPR), CHO(dHFr-) cells expressing hOX2; type: cell-based; conditions: antagonism of orexin-A at EC80; Kb=IC50/(1+[A]/EC50); CHO(dHFr-)-OX2R cells
T2 construct: expressed in transfected cells
T2 sequence (O43614 1-444): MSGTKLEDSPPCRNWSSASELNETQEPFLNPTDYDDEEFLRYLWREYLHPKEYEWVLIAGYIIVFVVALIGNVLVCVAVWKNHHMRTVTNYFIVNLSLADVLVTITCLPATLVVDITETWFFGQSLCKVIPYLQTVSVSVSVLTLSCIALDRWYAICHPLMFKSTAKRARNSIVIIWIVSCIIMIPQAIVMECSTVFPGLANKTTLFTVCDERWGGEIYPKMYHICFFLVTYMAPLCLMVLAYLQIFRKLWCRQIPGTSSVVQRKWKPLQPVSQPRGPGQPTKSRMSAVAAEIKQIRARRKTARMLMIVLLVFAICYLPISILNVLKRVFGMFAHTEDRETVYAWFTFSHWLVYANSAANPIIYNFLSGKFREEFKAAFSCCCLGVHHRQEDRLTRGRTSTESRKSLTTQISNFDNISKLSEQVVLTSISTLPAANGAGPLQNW
Method: as §1, §2

REM sleep = conditions: rat, icv administration (Piper et al., 2000); cited from earlier work

- Kb [1]: 0.439 µM
- Kb [2]: 0.0838 µM
Molecule: COc1ccc(N(CCc2ccc(C(F)(F)F)cc2)C(=O)C(C(=O)Nc2cccnc2)c2ccccc2)cc1OC (stereo not drawn) [Example 22, N-(3,4-Dimethoxy-phenyl)-2-phenyl-N′-pyridin-3-yl-N-[2-(4-trifluoromethyl-phenyl)-ethyl]-malonamide]

- Kb [2]: 0.0419 µM
Molecule: CCCCNC(=O)C(C(=O)N(CCc1ccc(C(F)(F)F)cc1)c1ccc(OC)c(OC)c1)c1ccccc1 (stereo not drawn) [Example 3, N-Butyl-N′-(3,4-dimethoxy-phenyl)-2-phenyl-N′-[2-(4-trifluoromethyl-phenyl)-ethyl]-malonamide]

- Kb [1]: 0.229 µM
- Kb [2]: 0.0217 µM
Molecule: COCCNC(=O)C(C(=O)N(CCc1ccc(C(F)(F)F)cc1)c1ccc(OC)c(OC)c1)c1ccccc1 (stereo not drawn) [Example 5, N-(3,4-Dimethoxy-phenyl)-N′-[2-methoxy-ethyl)-2-phenyl-N-[2-(4-trifluoromethyl-phenyl)-ethyl]-malonamide]

- Kb [1]: 0.234 µM
- Kb [2]: 0.0141 µM
Molecule: COc1ccc(N(CCc2ccc(C(F)(F)F)cc2)C(=O)C(C(=O)N(C)CCc2ccccc2)c2ccccc2)cc1OC (stereo not drawn) [Example 14, N-(3,4-Dimethoxy-phenyl)-N′-methyl-N′-phenethyl-2-phenyl-N-[2-(4-trifluoromethyl-phenyl)-ethyl]-malonamide]

- Kb [1]: 0.127 µM
- Kb [2]: 0.0172 µM
Molecule: COc1ccc(N(CCc2ccc(C(F)(F)F)cc2)C(=O)C(C(N)=O)c2ccccc2)cc1OC (stereo not drawn) [Example 2, N-(3,4-Dimethoxy-phenyl)-2-phenyl-N-[2-(4-trifluoromethyl-phenyl)-ethyl]-malonamide]

- Kb [1]: 0.191 µM
- Kb [2]: 0.0299 µM
Molecule: CCNC(=O)C(C(=O)N(CCc1ccc(C(F)(F)F)cc1)c1ccc(OC)c(OC)c1)c1ccccc1 (stereo not drawn) [Example 17, N-(3,4-Dimethoxy-phenyl)-N′-ethyl-2-phenyl-N-[2-(4-trifluoromethyl-phenyl)-ethyl]-malonamide]

- Kb [1]: 0.245 µM
- Kb [2]: 0.245 µM
Molecule: COc1ccc(N(CCc2ccc(C(F)(F)F)cc2)C(=O)C(C(=O)NCc2cccnc2)c2ccccc2)cc1OC (stereo not drawn) [Example 24, N-(3,4-Dimethoxy-phenyl)-2-phenyl-N′-pyridin-3-ylmethyl-N-[2-(4-trifluoromethyl-phenyl)-ethyl]-malonamide]

- Kb [1]: 0.173 µM
- Kb [2]: 0.0278 µM
Molecule: COc1ccc(N(CCc2ccc(C(F)(F)F)cc2)C(=O)C(C(=O)NCC(F)F)c2ccccc2)cc1OC (stereo not drawn) [Example 21, N-(2,2-Difluoro-ethyl)-N′-(3,4-diemthoxy-phenyl)-2-phenyl-N′-[2-(4-trifluoromethyl-phenyl)-ethyl]-malonamide]

Second part, the molecule before the results:

Molecule: COc1ccc(N(CCc2ccc(C(F)(F)F)cc2)C(=O)C(C(=O)N(C)Cc2ccccc2)c2ccccc2)cc1OC (stereo not drawn) [Example 15, N-Benzyl-N′-(3,4dimethoxy-phenyl)-N-methyl-2-phenyl-N′-[2-(4-trifluoromethyl-phenyl)-ethyl]-malonamide]
- Kb [1]: 0.166 µM
- Kb [2]: 0.0428 µM

Molecule: COc1ccc(N(CCc2ccc(C(F)(F)F)cc2)C(=O)C(C(=O)NCC2CC2)c2ccccc2)cc1OC (stereo not drawn) [Example 20, N-Cyclopropylmethyl-N′-(3,4-dimethoxy-phenyl)-2-phenyl-N′-[2-(4-trifluoromethyl-phenyl)-ethyl]-malonamide]
- Kb [1]: 0.292 µM
- Kb [2]: 0.0468 µM

Molecule: COc1ccc(N(CCc2ccc(C(F)(F)F)cc2)C(=O)C(C(=O)NC2CCOCC2)c2ccccc2)cc1OC (stereo not drawn) [Example 23, N-(3,4-Dimethoxy-phenyl)-2-phenyl-N′-(tetrahydro-pyran-4-yl)-N-[2-(4-trifluoromethyl-phenyl)-ethyl]-malonamide]
- Kb [1]: 0.238 µM
- Kb [2]: 0.023 µM

Molecule: CNC(=O)C(C(=O)N(CCc1ccc(C(F)(F)F)cc1)c1ccc(OC)c(OC)c1)c1ccccc1 (stereo not drawn) [Example 1, N-(3,4-Dimethoxy-phenyl)-N′-methyl-2-phenyl-N-[2-(4-trifluoromethyl-phenyl)-ethyl]-malonamide]
- Kb [1]: 0.16 µM
- Kb [2]: 0.0255 µM

Molecule: CCCNC(=O)C(C(=O)N(CCc1ccc(C(F)(F)F)cc1)c1ccc(OC)c(OC)c1)c1ccccc1 (stereo not drawn) [Example 19, N-(3,4-Dimethoxy-phenyl)-2-phenyl-N′-propyl-N-[2-(4-trifluoromethyl-phenyl)-ethyl]-malonamide]
- Kb [1]: 0.245 µM
- Kb [2]: 0.0523 µM

Molecule: COc1ccc(N(CCc2ccc(C(F)(F)F)cc2)C(=O)C(C(=O)NC2CC2)c2ccccc2)cc1OC (stereo not drawn) [Example 18, N-Cyclopropyl-N′-(3,4-dimethoxy-phenyl)-2-phenyl-N′-[2-(4-trifluoromethyl-phenyl)-ethyl]-malonamide]
- Kb [1]: 0.199 µM
- Kb [2]: 0.0197 µM

Molecule: COc1ccc(N(CCc2ccc(C(F)(F)F)cc2)C(=O)C(C(=O)NCc2ccc(C)cc2)c2ccccc2)cc1OC (stereo not drawn) [Example 13, N-(3,4-Dimethoxy-phenyl)-N′-(4-methyl-benzyl)-2-phenyl-N-[2-(4-trifluoromethyl-phenyl)-ethyl]-malonamide]
- Kb [1]: 0.218 µM
- Kb [2]: 0.0968 µM

Molecule: COc1ccc(N(CCc2ccc(C(F)(F)F)cc2)C(=O)C(C(=O)Nc2ccc(F)cc2)c2ccccc2)cc1OC (stereo not drawn) [Example 16, N-(3,4-Dimethoxy-phenyl)-N′-(4-fluoro-phenyl)-2-phenyl-N-[2-(4-trifluoromethyl-phenyl)-ethyl]-malonamide]
- Kb [1]: 0.252 µM
- Kb [2]: 0.0817 µM

Molecule: OX-A: orexin-A/hypocretin1, hypothalamic neuropeptide of 33 amino acids, agonist of OX1R and OX2R (QPLPDCCRQKTCSCRLYELLHGAGNHAAGILTL; ends and bridges not checked; cysteine pairing not given here; UniProt O43612 34-66, looked up)
- reduces total REM sleep (REM sleep): 84%

Molecule: COc1ccc(N(CCc2ccc(C(F)(F)F)cc2)C(=O)C(C(=O)N(C)C)c2ccccc2)cc1Cl (stereo not drawn) [Example 58, N-(3-Chloro-4-methoxy-phenyl)-N′,N′-dimethyl-2-phenyl-N-[2-(4-trifluoromethyl-phenyl)-ethyl]-malonamide]
- Kb [1]: 0.723 µM
- Kb [2]: 0.0572 µM

Molecule: COc1cc(N(CCc2ccc(C(F)(F)F)cc2)C(=O)C(C(=O)N(C)C)c2ccccc2)ccc1Cl (stereo not drawn) [Example 56, N-(4-Chloro-3-methoxy-phenyl)-N′,N′-dimethyl-2-phenyl-N-[2-(4-trifluoromethyl-phenyl)-ethyl]-malonamide]
- Kb [1]: 0.295 µM
- Kb [2]: 0.055 µM
